Experimental data as given in PMC7911889 (Viruses, 2021).
pEC50: −log10 of the molar value.

Target: SARS-CoV-2 3CL^pro (Severe acute respiratory syndrome coronavirus 2, UniProt P0DTD1)
Assay type: cell-based

Row | SMILES | Effect on luciferase reporter activity / 3CL^pro inhibition (in words) | pEC50 (read-out: EC50, SARS-CoV-2 3CLpro luciferase complementation assay)
1 | CC(C)(C)NC(=O)N[C@H](C(=O)N1C[C@H]2[C@@H]([C@H]1C(=O)NC(CC1CCC1)C(=O)C(N)=O)C2(C)C)C(C)(C)C (stereo partly drawn) [Boceprevir] | clearly inhibited SARS-CoV-2 3CL^pro | –
2 | CC(NC(=O)[C@H](Cc1ccccc1)NC(=O)OCc1ccccc1)C(=O)CF (stereo partly drawn) [Z-FA-FMK] | clearly inhibited SARS-CoV-2 3CL^pro | 4.58
